The record followed here is PMC6211832, “Screening of candidate substrates and coupling ions of transporters by thermostability shift assays” (eLife, 2018).

The target in assay [1] is T1, GalP (Escherichia coli, UniProt P0AEP1).
T1 construct: full length, C-terminal His6; plasmid pGP1 in E. coli JM1100, purified in dodecyl-maltoside
The experiment in a line: CPM thermostability shift assay. It is filed as binding. To be noted: 50 mM compound, dodecyl-maltoside.

Assay [2] addresses T2, mitochondrial ADP/ATP carrier (AAC) (Thermothelomyces thermophilus, UniProt G2QNH0).
T2 construct: gene MYCTH_2316753; N-terminal His8 tag, TSED linker and Factor Xa site; expressed in S. cerevisiae WB.12 mitochondria, purified in dodecyl-maltoside
The experiment in a line: CPM thermostability shift assay. To be noted: 2.5 mM compound, pH 8.0, 100 mM NaCl, dodecyl-maltoside, tetraoleoyl cardiolipin. It is filed as binding. From the text:
CPM thermostability shift assay on mitochondrial ADP/ATP carrier (AAC) | In the presence of ATP, ADP, and dADP the population was stabilized

A further assay has as its target T3, Mhp1 (Microbacterium maritypicum, UniProt D6R8X8).
T3 construct: gene hyuP; full length, C-terminal His6; plasmid pTTQ18, E. coli BL21(DE3), purified in dodecyl-maltoside
The experiment in a line: CPM thermostability shift assay. It is filed as binding. To be noted: 2 mM compound, 140 mM NaCl, pH 8.0, dodecyl-maltoside.

For assay [3], the target named is T1, GalP. Briefly: CPM thermostability shift assay. To be noted: 50 mM compound, dodecyl-maltoside. It is filed as binding. This is another data set of the same source.
In assay [4] the target is T4, mitochondrial phosphate carrier of Tetrahymena thermophila (UniProt I7M3J0) (Tetrahymena thermophila, UniProt I7M3J0).
T4 construct: gene TTHERM_00535740; N-terminal His8 tag, TSED linker and Factor Xa site; expressed in S. cerevisiae W303-1B mitochondria, purified in lauryl maltose neopentyl glycol
Briefly: CPM thermostability shift assay. Type of assay: binding. To be noted: 2.5 mM compound, pH 6.0, 100 mM NaCl, tetraoleoyl cardiolipin.

For assay [5], the target named is T4, mitochondrial phosphate carrier of Tetrahymena thermophila. Briefly: competition of […]-orthophosphate uptake in proteoliposomes. It is filed as biochemical. To be noted: 20 mM external glyoxylate, 20 μM [33P]-orthophosphate, pH 6.5, 20 mM internal compound.

T1 sequence (P0AEP1 whole entry): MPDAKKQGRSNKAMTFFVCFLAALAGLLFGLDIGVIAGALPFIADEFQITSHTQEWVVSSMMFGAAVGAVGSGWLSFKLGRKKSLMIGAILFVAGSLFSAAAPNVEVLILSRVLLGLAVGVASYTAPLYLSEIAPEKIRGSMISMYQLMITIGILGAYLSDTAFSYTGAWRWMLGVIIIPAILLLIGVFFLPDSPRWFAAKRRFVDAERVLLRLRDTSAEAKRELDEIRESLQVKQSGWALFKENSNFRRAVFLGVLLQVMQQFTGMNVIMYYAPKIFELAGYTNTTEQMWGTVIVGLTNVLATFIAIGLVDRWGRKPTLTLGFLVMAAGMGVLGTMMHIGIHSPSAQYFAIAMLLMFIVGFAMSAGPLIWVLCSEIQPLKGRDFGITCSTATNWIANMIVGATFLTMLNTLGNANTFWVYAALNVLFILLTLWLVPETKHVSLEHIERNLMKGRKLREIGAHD
T4 sequence (I7M3J0 entry or part of it): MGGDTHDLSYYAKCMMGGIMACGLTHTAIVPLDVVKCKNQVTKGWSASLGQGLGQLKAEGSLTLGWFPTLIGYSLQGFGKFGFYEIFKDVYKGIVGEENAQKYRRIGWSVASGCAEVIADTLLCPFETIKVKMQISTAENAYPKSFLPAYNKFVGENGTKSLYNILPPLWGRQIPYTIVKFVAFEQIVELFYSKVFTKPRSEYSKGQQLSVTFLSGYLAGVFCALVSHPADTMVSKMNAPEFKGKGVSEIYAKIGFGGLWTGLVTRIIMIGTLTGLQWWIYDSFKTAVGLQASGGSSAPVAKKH
T2 sequence (G2QNH0 whole entry): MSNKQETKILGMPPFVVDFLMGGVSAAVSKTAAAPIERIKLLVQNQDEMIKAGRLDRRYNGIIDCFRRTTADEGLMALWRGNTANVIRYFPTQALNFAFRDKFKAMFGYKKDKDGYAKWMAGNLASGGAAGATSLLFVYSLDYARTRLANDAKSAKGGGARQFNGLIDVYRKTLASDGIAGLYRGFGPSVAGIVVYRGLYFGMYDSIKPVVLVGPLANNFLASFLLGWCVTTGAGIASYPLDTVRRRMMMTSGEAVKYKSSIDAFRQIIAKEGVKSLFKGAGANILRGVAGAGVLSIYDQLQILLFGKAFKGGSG
T3 sequence (D6R8X8 whole entry): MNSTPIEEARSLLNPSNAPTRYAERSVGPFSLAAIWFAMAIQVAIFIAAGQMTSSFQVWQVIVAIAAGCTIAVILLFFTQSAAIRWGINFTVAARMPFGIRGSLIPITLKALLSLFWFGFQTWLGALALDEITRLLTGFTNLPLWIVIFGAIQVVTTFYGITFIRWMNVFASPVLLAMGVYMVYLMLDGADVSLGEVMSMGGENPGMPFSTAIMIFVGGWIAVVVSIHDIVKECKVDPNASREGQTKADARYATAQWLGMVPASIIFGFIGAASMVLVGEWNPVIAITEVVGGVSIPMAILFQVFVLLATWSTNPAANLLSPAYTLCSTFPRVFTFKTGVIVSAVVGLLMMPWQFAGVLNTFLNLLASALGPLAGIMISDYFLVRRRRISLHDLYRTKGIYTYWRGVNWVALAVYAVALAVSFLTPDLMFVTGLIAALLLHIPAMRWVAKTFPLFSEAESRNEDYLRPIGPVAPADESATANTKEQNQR

As to `OC[C@H]1OC(O)C[C@@H](O)[C@@H]1O` (stereo partly drawn) [2-deoxy-D-glucose], the dTm result on GalP [1] is “to a lesser extent by D-talose, 2-deoxy-D-glucose, 6-deoxy-D-glucose”.
With `C[C@H]1OC(O)[C@H](O)[C@@H](O)[C@@H]1O` (stereo partly drawn) [6-deoxy-D-glucose], the dTm entry at GalP [1] was “to a lesser extent by D-talose, 2-deoxy-D-glucose, 6-deoxy-D-glucose”.
Regarding `Nc1ncnc2c1ncn2[C@@H]1O[C@H](COP(=O)(O)OP(=O)(O)O)[C@@H](O)[C@H]1O` [ADP], in assay [2], the dTm came to 6.0 ± 0.5 °C.
As for `Nc1ncnc2c1ncn2[C@@H]1O[C@H](COP(=O)(O)OP(=O)(O)OP(=O)(O)O)[C@@H](O)[C@H]1O` [ATP], the dTm in assay [2] came to 7.2 ± 0.2 °C.
Consider `O=C1NC(=O)C(C=CBr)N1` (stereo not drawn) [BVH, 5-bromovinylhydantoin], for which the dTm on Mhp1 was found to be 11.9 ± 1.1 °C.
For `OC[C@H]1OC(O)[C@H](O)[C@@H](O)[C@H]1O` (stereo partly drawn) [D-galactose], at GalP [3], the dTm turned out to be 2.1 ± 0.6 °C.
`OC[C@H]1OC(O)[C@H](O)[C@@H](O)[C@@H]1O` (stereo partly drawn) [D-glucose]: the dTm on GalP [3] came out at 4.2 ± 0.5 °C.
For `OC[C@H]1OC(O)[C@@H](O)[C@@H](O)[C@H]1O` (stereo partly drawn) [D-talose], the dTm entry at GalP [1] was “to a lesser extent by D-talose, 2-deoxy-D-glucose, 6-deoxy-D-glucose”.
Regarding `O=C1NC(=O)[C@H](Cc2ccccc2)N1` [L-BH, 5-benzyl-L-hydantoin], the dTm on Mhp1 was determined as 13.6 ± 1.2 °C.
In the case of `O=C1NC(=O)[C@H](Cc2ccc3ccccc3c2)N1` [L-NMH, 5-(2-naphthylmethyl)-L-hydantoin], the dTm on Mhp1 (inhibitor) came out at 15.6 ± 1.7 °C.
For the compound `CC(=O)OP(=O)(O)O` [acetyl-phosphate], in assay [4], the dTm amounted to 3.2 ± 0.5 °C.
With `Nc1ncnc2c1ncn2[C@H]1C[C@H](O)[C@@H](COP(=O)(O)OP(=O)(O)O)O1` [dADP], the dTm in assay [2] is 1.8 ± 0.2 °C.
With `O=CC(=O)O` [glyoxylate], in assay [5], the “inhibition of phosphate uptake” value was “in competition assays glyoxylate abolished uptake”. Further, in assay [4], the dTm came out at 3.6 ± 0.8 °C.
On to `C=C(OP(=O)(O)O)C(=O)O` [phosphoenolpyruvate], for which, in assay [4], the dTm worked out at 2.3 ± 0.2 °C.
